≈ marks a conversion by molar mass, not a printed value. Bridge positions count the residues as written; N and C are the ends. Square brackets hold non-standard residues; d marks the D form. Peptide text beside a SMILES is read from it. * marks the point of attachment. Ileψ(thiazoline)Cys = CC[C@H](C)[C@H](N)C1=N[C@H](C(=O)*)CS1; dOrn = NCCC[C@@H](N)C(=O)O
What was measured:
Streptococcus pyogenes = assay: protection of mice experimentally infected with test organism (Table X); assay type: in vivo; conditions: mice, subcutaneous, 1 and 4 hours postinfection
Procedure: (§1) The A82846 antibiotics have also shown in vivo antimicrobial activity against experimentally-induced infections in laboratory animals. When two doses of test compound were administered to mice experimentally infected with the test organism, the activity observed was measured as an ED50 value [effective dose in mg/kg to protect 50% of the test animals: see Warren Wick, et al., J. Bacteriol. 81, 233-235 (1961)].
(§2) ^a mg/kg × 2; doses administered subcutaneously to mice 1 and 4

Streptococcus pneumoniae = assay: as above; assay type: in vivo; conditions: mice, subcutaneous, 1 and 4 hours postinfection
Procedure: as §1, §2

Staphylococcus aureus = assay: as above; assay type: in vivo; conditions: mice, subcutaneous, 1 and 4 hours postinfection
Procedure: as §1, §2

[1] = test system: Streptococcus Group D X66; assay type: cell-based; conditions: agar dilution
Procedure: (§3) The MIC's in Tables VII and VIII were determined by standard agar-dilution assays.

[2] = test system: Streptococcus Group D 2041; assay type: cell-based; conditions: agar dilution
Procedure: as §3

[3] = test system: Staphylococcus epidermidis 222; assay type: cell-based; conditions: S. epidermidis 222; agar dilution
Procedure: as §3

[4] = test system: Staphylococcus epidermidis 270; assay type: cell-based; conditions: S. epidermidis 270; agar dilution
Procedure: as §3

[5] = test system: Streptococcus pyogenes C203; assay type: cell-based; conditions: S. pyogenes C203; agar dilution
Procedure: as §3

[6] = test system: Haemophilus influenzae 76; assay type: cell-based; conditions: H. influenzae 76, ampicillin-resistant strain; agar dilution
Procedure: as §3

[7] = test system: Staphylococcus aureus V41; assay type: cell-based; conditions: S. aureus V41, penicillin-resistant strain; agar dilution
Procedure: as §3

[8] = test system: Staphylococcus aureus X400; assay type: cell-based; conditions: S. aureus X400, methicillin-resistant strain; agar dilution
Procedure: as §3

[9] = test system: Klebsiella pneumoniae X26; assay type: cell-based; conditions: K. pneumoniae X26; agar dilution
Procedure: as §3

[10] = test system: Pseudomonas aeruginosa X239; assay type: cell-based; conditions: P. aeruginosa X239; agar dilution
Procedure: as §3

[11] = test system: Streptococcus pneumoniae Park I; assay type: cell-based; conditions: S. pneumoniae Park I; agar dilution
Procedure: as §3

Escherichia coli EC14 = assay type: cell-based; conditions: E. coli EC14; agar dilution
Procedure: as §3

[12] = test system: Staphylococcus aureus X1.1; assay type: cell-based; conditions: S. aureus X1.1; agar dilution
Procedure: as §3

[13] = test system: Haemophilus influenzae C.L.; assay type: cell-based; conditions: H. influenzae C.L., ampicillin-sensitive strain; agar dilution
Procedure: as §3

[14] = test system: Cultures A82846 and A82846.1; assay: resistance to antibiotics, antibiotic sensitivity discs on seeded agar plates
N. aerocolonigenes = assay: resistance to antibiotics, sensitivity discs (Table III); assay type: cell-based, Nocardia aerocolonigenes
A82846 = assay: as above; assay type: cell-based, Nocardia orientalis; conditions: culture A82846
N. orientalis = assay: as above; assay type: cell-based, Nocardia orientalis

Compound: CN[C@@H](CC(C)C)C(=O)N[C@H]1C(=O)N[C@H](CC(N)=O)C(=O)N[C@H]2C(=O)N[C@H]3C(=O)N[C@@H](C(=O)NC(C(=O)O)c4cc(O)cc(O)c4-c4cc3ccc4O)[C@@H](O[C@H]3C[C@](C)(N)[C@H](O)[C@@H](C)O3)c3ccc(cc3)Oc3cc2cc(c3O[C@H]2O[C@@H](CO)[C@@H](O)[C@H](O)[C@@H]2O[C@H]2C[C@](C)(N)[C@H](O)[C@@H](C)O2)Oc2ccc(cc2)[C@@H]1O (stereo partly drawn) [A82846C]
- ED50 Value (Streptococcus pyogenes): 2.71 mg/kg × 2
- ED50 Value (Streptococcus pneumoniae): 5.87 mg/kg × 2
- ED50 Value (Staphylococcus aureus): 2.18 mg/kg × 2
- MIC [1]: 2 µg/mL (≈ 1.31 µM)
- MIC [2]: 4 µg/mL (≈ 2.63 µM)
- MIC [3]: 1 µg/mL (≈ 0.656 µM)
- MIC [4]: 1 µg/mL (≈ 0.656 µM)
- MIC [5]: 1 µg/mL (≈ 0.656 µM)
- MIC [6]: -- (Not active at 128 mcg/mL, the highest level tested)
- MIC [7]: 1 µg/mL (≈ 0.656 µM)
- MIC [8]: 1 µg/mL (≈ 0.656 µM)
- MIC [9]: -- (Not active at 128 mcg/mL, the highest level tested)
- MIC [10]: -- (Not active at 128 mcg/mL, the highest level tested)
- MIC [11]: 2 µg/mL (≈ 1.31 µM)
- MIC (Escherichia coli EC14): -- (Not active at 128 mcg/mL, the highest level tested)
- MIC [12]: 1 µg/mL (≈ 0.656 µM)
- MIC [13]: -- (Not active at 128 mcg/mL, the highest level tested)

Compound: CC[C@H](C)[C@H](N)C1=N[C@H](C(=O)N[C@@H](CC(C)C)C(=O)N[C@H](CCC(=O)O)C(=O)N[C@H](C(=O)N[C@H]2CCCCNC(=O)[C@H](CC(N)=O)NC(=O)[C@@H](CC(=O)O)NC(=O)[C@H](Cc3cnc[nH]3)NC(=O)[C@@H](Cc3ccccc3)NC(=O)[C@H]([C@@H](C)CC)NC(=O)[C@@H](CCCN)NC2=O)[C@@H](C)CC)CS1 [bacitracin] ({Ileψ(thiazoline)Cys}-L[dE]IK[dOrn]I[dF]H[dD]N; lactam 4-C)
- antibiotic resistance ([14]; disc 10 units): resistant

Compound: CC(=O)OCC1=C(C(=O)O)N2C(=O)[C@@H](NC(=O)Cc3cccs3)[C@H]2SC1 [cephalothin]
- antibiotic resistance ([14]; disc 30 μg): resistant

Compound: O=C(N[C@H](CO)[C@H](O)c1ccc([N+](=O)[O-])cc1)C(Cl)Cl [chloramphenicol]
- antibiotic resistance ([14]; disc 30 μg): sensitive

Compound: CC[C@H]1OC(=O)[C@H](C)[C@@H](O[C@H]2C[C@@](C)(OC)[C@@H](O)[C@H](C)O2)[C@H](C)[C@@H](O[C@@H]2O[C@H](C)C[C@H](N(C)C)[C@H]2O)[C@](C)(O)C[C@@H](C)C(=O)[C@H](C)[C@@H](O)[C@]1(C)O [erythromycin]
- antibiotic resistance ([14]; disc 15 μg): resistant

Compound: CCC[C@@H]1C[C@@H](C(=O)N[C@@H]([C@H]2O[C@H](SC)[C@H](O)[C@@H](O)[C@H]2O)[C@@H](C)O)N(C)C1 [lincomycin]
- antibiotic resistance ([14]; disc 2 μg): resistant

Compound: C1N2CN3CN1CN(C2)C3 [mandelamine]
- antibiotic resistance ([14]; disc 3 μg): sensitive

Compound: CCn1cc(C(=O)O)c(=O)c2ccc(C)nc21 [nalidixic acid]
- antibiotic resistance ([14]; disc 30 μg): resistant

Compound: CO[C@@H]1[C@@H](OC(N)=O)[C@@H](O)[C@H](Oc2ccc3c(O)c(NC(=O)c4ccc(O)c(CC=C(C)C)c4)c(=O)oc3c2C)OC1(C)C [novobiocin]
- antibiotic resistance ([14]; disc 30 μg): sensitive

Compound: CO[C@H]1C[C@H](O[C@H]2[C@H](C)[C@@H](O[C@@H]3O[C@H](C)C[C@H](N(C)C)[C@H]3O)[C@@H](C)C[C@@]3(CO3)C(=O)[C@H](C)[C@@H](O)[C@@H](C)[C@@H](C)OC(=O)[C@@H]2C)O[C@@H](C)[C@@H]1O [oleandomycin]
- antibiotic resistance ([14]; disc 15 μg): resistant

Compound: CC1(C)S[C@@H]2[C@H](NC(=O)Cc3ccccc3)C(=O)N2[C@H]1C(=O)O [penicillin G]
- antibiotic resistance ([14]; disc 10 units): resistant

Compound: CO[C@H]1/C=C/O[C@@]2(C)Oc3c(C)c(O)c4c(O)c(c(/C=N/N5CCN(C)CC5)c(O)c4c3C2=O)NC(=O)/C(C)=C\C=C\[C@H](C)[C@H](O)[C@@H](C)[C@@H](O)[C@@H](C)[C@H](OC(C)=O)[C@@H]1C [rifampin]
- antibiotic resistance ([14]; disc 5 μg): sensitive

Compound: [H]/N=C(/N)N[C@H]1[C@H](O)[C@@H](O)[C@H](O[C@@H]2O[C@@H](C)[C@](O)(C=O)[C@H]2O[C@@H]2O[C@@H](CO)[C@H](O)[C@@H](O)[C@@H]2NC)[C@@H](N/C(N)=N\[H])[C@@H]1O [streptomycin]
- antibiotic resistance ([14]; disc 10 μg): resistant

Compound: Nc1ccc(S(=O)(=O)Nc2ncccn2)cc1 [sulfadiazine]
- antibiotic resistance ([14]; disc 300 μg): resistant

Compound: CN(C)C1C(=O)C(C(N)=O)=C(O)C2(O)C(=O)C3=C(O)c4c(O)cccc4C(C)(O)C3CC12 (stereo not drawn) [tetracycline]
- antibiotic resistance ([14]; disc 30 μg): sensitive

Compound: NC[C@H]1O[C@H](O[C@H]2[C@H](O)[C@@H](O[C@H]3O[C@H](CO)[C@@H](O)[C@H](N)[C@H]3O)[C@H](N)C[C@@H]2N)[C@H](N)C[C@@H]1O [tobramycin]
- antibiotic resistance ([14]; disc 10 μg): resistant

Compound: COc1cc(Cc2cnc(N)nc2N)cc(OC)c1OC [trimethoprim]
- antibiotic resistance ([14]; disc 5 μg): resistant

Compound: gentamicin
- Resistance to (N. aerocolonigenes; 10 μg): -
- antibiotic resistance ([14]; disc 10 μg): resistant
- Resistance to (A82846; 10 μg): +
- Resistance to (N. orientalis; 10 μg): -

Compound: neomycin
- Resistance to (N. aerocolonigenes; 30 μg): -
- antibiotic resistance ([14]; disc 30 μg): sensitive
- Resistance to (A82846; 30 μg): -
- Resistance to (N. orientalis; 30 μg): -

Compound: polymixin B
- Resistance to (N. aerocolonigenes; 300 units): +
- antibiotic resistance ([14]; disc 300 units): resistant
- Resistance to (A82846; 300 units): +
- Resistance to (N. orientalis; 300 units): +
